Measurements: patent publication US20220323444A1, “Methods of Treating Advanced Prostate Cancer” (The Medical College of Wisconsin, Inc., priority 2019, published 2022)

How the values were obtained:
[1] = tested on: CWR22Rv1, CWR22Pc and LAPC4 cells; assay: PC cell migration, Boyden chamber assay; format: cell-based; settings: Fibronectin chemoattractant
Protocol: Stat5 was genetically knocked down by lentiviral expression of shStat5 with shCtrl as control for 3 days followed by treatment with ENZ (40 μM; CWR22Pc, CWR22Rv1; 20 μM LAPC-4) vs. DMSO for 10 days. Equivalent numbers of cells were plated to Boyden chamber inserts with Fibronectin as the chemoattractant in the bottom well, and the migrated cells were imaged and counted.
(§1) To evaluate if ENZ induces EMT and migration of PC cells in our hands, three different PC cell lines were treated with ENZ for 12 days and analyzed for the expression of EMT markers (N-cadherin, Vimentin and Twist1) by immunoprecipitation (IP) and western blotting (FIG. 13). […] The ENZ-induced PC cell migration was inhibited by genetic ablation of Stat5 by lentiviral expression of shStat5 vs. shCtrl (FIG. 14). Human CWR22Pc cells, when inoculated to the prostates of immunocompromised mice, form distant metastases in the liver in 8 weeks after orthotopic growth.

[2] = tested on: EMT markers (N-cadherin, Vimentin, Twist1, E-cadherin) in PC cell lines; assay: EMT marker expression in PC cell lines treated with ENZ; format: cell-based; settings: three PC cell lines, 12 days
Protocol: Lenti-viral expression of ShStat5 3 days prior to ENZ treatment (at indicated concentrations) blocked ENZ-induction of the EMT markers.
as §1

[3] = tested on: CRPC; settings: cited from earlier work
[4] = tested on: nuclear active Stat5 in PCs; assay: Immunohistochemistry of active Stat5 in PCs of patients treated with ENZ; format: in vivo, human; settings: biopsies of ENZ-treated PCs
From the text: We recently reported that ENZ induces a hyperactivated feed-forward Jak2-Stat5 signaling loop in PC to promote ENZ-resistant PC growth(50).

[5] = tested on: Stat5 and Jak2 phosphorylation in PC cells; assay: ENZ-induced Jak2-Stat5 phosphorylation in PC cells (IP and WB); format: cell-based
Protocol: CWR22Pc and LAPC4 PC cells were treated with ENZ or vehicle for the indicated periods of time. Levels of active Stat5 were determined by immunoprecipitation (IP) of Stat5 followed by immunoblotting (WB) for pStat5a/b and total Stat5. Whole cell lysates (WCL) were immunoblotted for pStat3, Stat3 and Actin. […] CWR22Pc and LAPC4 cells were transduced with lentiviral AR shRNA (shAR) or lenti-shCtrl for 3 days followed by treatment with ENZ or vehicle for 7 days at the indicated concentrations.
PC cells were cultured with ENZ or Jak2 inhibitor AZD1480 (800 nM) alone or in combination for 12 days. Expression levels of active Stat5 were determined by IP of Stat5 followed by WB for pStat5a/b and total Stat5. WCLs were immunoblotted for pStat3, Stat3 and Actin. […] Jak2 was suppressed by lentiviral Jak2 shRNA vs. shCtrl in PC cells for 3 days followed by ENZ or vehicle for 7 days. Active Stat5, Stat5 and Jak2 levels were evaluated by IP and WB, as depicted. […] PC cells were treated with ENZ or vehicle for 6 h at the indicated concentrations. Control cells were stimulated with prolactin (Prl) (10 nM) for 20 min as control for cytokine-induced Jak2 phosphorylation. […] Alternatively, PC cells were treated with ENZ or vehicle for 12 days or stimulated with Prl for 20 min at the indicated concentrations. Stat5 and Jak2 were IP:ed and WB:ed for pStat5, pJak2, tot Stat5, and total Jak2.
To investigate whether AR is required for ENZ induction of Stat5 signaling, we inhibited AR expression in CWR22Pc and LAPC4 cells by genetic knockdown using lentiviral expression of AR shRNA (FIG. 9C).
To further assess the involvement of Jak2 in ENZ-induced Stat5 activation, Jak2 was genetically knocked down by lentiviral expression of Jak2 shRNA in CWR22Pc and LAPC4 cells for 3 days followed by ENZ treatment for 7 days.

[6] = tested on: AR mRNA and protein levels in CWR22Pc tumors; assay: AR levels in CWR22Pc xenograft tumors in nude mice; format: in vivo; settings: 40 mg/kg i.p. daily for 40 days
Protocol: FIG. 4A. Pharmacological Stat5 inhibition decreases AR protein and mRNA levels in PC xenograft tumors in nude mice. Nuclear AR and Stat5 levels were detected by immunostaining of paraffin-embedded tissue sections of CWR22Pc tumors from mice treated with IST5-002 (IST5) (40 mg/kg; i.p.) for 40 days. Also, AR mRNA levels were evaluated by q-RT-PCR. FIG. 4B. Pharmacological inhibition of Stat5 by IST5-002 or pacritinib suppress AR mRNA levels in patient-derived PCs cultured ex vivo. Clinical PCs (n=4) obtained from prostatectomies were cultured for 7 days ex vivo in 3D tumor explant cultures in the presence of Stat5 inhibitor IST5-002 (12.5 μM) or PAC (1 μM) vs. vehicle, and AR mRNA levels were analyzed by qRT-PCR.
To evaluate whether Stat5 regulation of AR mRNA and protein levels is evident in an in vivo setting where PC cells were grown as xenograft tumors in mice, CWR22Pc cells (1.5×10^7) were inoculated subcutaneously into flanks of nude mice (one tumor/mouse). After tumors reached approximately 100 mm^3 in size (12 d), mice were treated daily for 40 days by intraperitoneal injection with IST5-002 (40 mg/kg body weight) or vehicle (0.3% hydroxypropyl cellulose/H2O) (5 mice/group). AR mRNA and protein levels were evaluated by q-RT-PCR(47) and by immunohistochemistry, as previously described(18, 45, 46, 48, 49).

[7] = tested on: FL-AR and AR-V protein levels in CWR22Rv1 cells; assay: Pilot experiment: FED on AR protein levels in CWR22Rv1 cells (IB); format: cell-based; settings: CWR22Rv1, 4 days
From the text: Jak2 was inhibited for 4 days by fedratinib (FED) at indicated concentrations followed by quantification of FL-AR, AR-V7 and AR-V9 protein levels by IB.
We conducted a pilot experiment to test the efficacy of FED in suppressing AR levels in PC cells (FIG. 16).

[8] = tested on: FL-AR, AR-V7 and AR-V9 mRNA and AR protein levels in PC cells; assay: AR mRNA (qRT-PCR) and AR / pYStat5 protein (immunoblot) in PC cells treated with Jak2 inhibitors; format: cell-based; settings: CWR22Rv1 CRPC cell line, FIGS. 6A-6B
Protocol: Jak2 was inhibited for 3 days by Jak2 inhibitors AZD1480, gandotinib, pacritinib, baricitinib or fedratinib at indicated concentrations followed by RNA extraction and quantification of FL-AR, AR-V7 and AR-V9 mRNA levels by qRT-PCR.
Immunoblot analysis of AR expression in PC cells treated with increasing concentrations of Jak2 inhibitors AZD1480, gandotinib, pacritinib or baricitinib for 72 h.
(§2) We tested whether Stat5 regulation of AR mRNA and protein levels provides an opportunity to control AR levels pharmacologically by inhibition of Jak2 signaling. […] Finally, to evaluate the effect of PAC and FED on PC cell viability, CWR22Rv1 cells were treated with increasing concentrations of PAC or FED for 3 days.

[9] = tested on: CWR22Rv1 PC cells; assay: Death / viability of CWR22Rv1 PC cells treated with Jak2 inhibitors; format: cell-based; settings: 72 h; CWR22Rv1, at 3 days; read-out: IC50, induction of death of CWR22Rv1 PC cells
Protocol: as §2

[10] = tested on: CWR22PC PC cells that survive treatment with ENZ; assay: Viability of CWR22PC cells surviving ENZ treatment; format: cell-based, human; settings: ENZ 5 days, then 300 nM for 4 days
Protocol: The PC cells were treated with ENZ (or vehicle) for 5 days, and were then treated with ENZ, vehicle, PAC, or FED for 4 days.
The effect of PAC and FED in blocking the growth of PC cells that survive treatment with the anti-androgen enzalutamide (ENZ) was tested in CWR22PC PC cells. The PC cells were treated in culture with ENZ (or vehicle) for 5 days, and were then treated with ENZ (40 μM), vehicle, PAC (300, 600 or 1200 nM), or FED (300, 600 or 1200 nM) for 4 days. […] Thus, PAC and FED can be used to reduce ENZ resistant PC cell growth.

[11] = tested on: androgen-responsive PC cell viability; assay: PC cell viability time-course versus androgen withdrawal (crystal violet staining and cell counting); format: cell-based
From the text: Crystal violet staining and cell counting were used to compare PC viability over a time-course of 2-10 days between cells treated with ADT and control (+ADT), cells treated with PAC and control (+DMSO), cells treated with FED and control (+DMSO), cells treated with Jak2 knockdown (shJak2) and control (shCtrl), and cells treated with Stat5 knockdown (shStat5) and control (shCtrl).
Next, we compared the effect of androgen deprivation therapy (ADT) carried out by androgen withdrawal, which is the standard therapy used to treat advanced prostate, to the effect of PAC and FED on androgen-responsive PC cell viability over a time-course of 2-10 days using crystal violet staining and cell counting. Based on this analysis, ADT decreased cell viability by 30% compared to control (+DHT), PAC decreased cell viability by 82% after 4 days of treatment and by 96% after 6 days of treatment compared to the control (+DMSO), FED decreased cell viability by 87% after 4 days of treatment and by 98% after 6 days of treatment compared to control (+DMSO), Jak2 knockdown (shJak2) decreased cell viability by 92% after 4 days of lentivirus infection and by 95% after 6 days of lentivirus infection compared to control (shCtrl), and Stat5 knockdown (shStat5) decreased cell viability by 96% after 4 days of lentivirus infection and by 98% after 6 days of lentivirus infection compared to control (shCtrl) (FIG. 25).

[12] = tested on: AR mRNA and protein expression in CWR22PC cells; assay: PAC and FED on AR expression after Stat5-shRNA in CWR22PC cells; format: cell-based, human; settings: lentiviral Stat5-shRNA
From the text: We tested whether PAC and FED are able to further reduce AR mRNA and/or protein expression following genetic suppression of AR gene expression via lentiviral expression of Stat5-shRNA in CWR22PC cells.

[13] = tested on: AR mRNA and protein in PC cells that survive ENZ treatment; assay: AR expression in CWR22PC cells surviving ENZ treatment; format: cell-based, human; settings: ENZ 5 days, then PAC or FED for 4 days
[14] = tested on: AR-FL, AR-V7 and AR-V9 mRNA expression; assay: Low concentrations of FED and PAC on AR mRNA expression; format: cell-based; settings: 0-0.6 μM
Protocol: As a preliminary study, we tested whether low contrations of FED and PAC (0, 0.01875, 0.0375, 0.075, 0.15, 0.3, 0.6 μM) reduce mRNA expression of full-length (AR-FL) and variant (AR-V7 and AR-V9) forms of AR.

[15] = tested on: AR-FL, AR-V7 and AR-V9 expression and Stat5 phosphorylation in PC cell lines; assay: Clinical grade versus research grade pacritinib: Stat5 phosphorylation and AR expression in PC cell lines; format: cell-based
Protocol: Control cells were treated with […] (ShCtrl).
The ability of clinical grade pacritinib (CTI Biopharma) to inhibit Stat5 phosphorylation and suppress AR expression in prostate cancer cells in vitro was compared to that of research grade pacritinib (MedChem Express (MCE)) and to cells in which Jak2 was knocked down using lentivirus expressing Jak2-shRNA (shJak2). […] Thus, clinical grade pacritinib induces the same effects as research grade pacrtinib, suppressing AR levels and reducing PC cell viability.

[16] = tested on: AR protein levels in CWR22PC cells; assay: Time-course of AR protein levels in CWR22PC cells; format: cell-based, human; settings: timepoints 12-72 h

## CNC(=O)c1ccc(N2C(=S)N(c3ccc(C#N)c(C(F)(F)F)c3)C(=O)C2(C)C)cc1F [ENZ, 4-(3-(4-cyano-3-(trifluoromethyl)phenyl)-5,5-dimethyl-4-oxo-2-thioxoimidazolidin-1-yl)-2-fluoro-N-methylbenzamide]
[1]
  migration of PC cell lines: induces a robust migration
[2]
  expression of EMT markers: induced the expression of N-cadherin, Vimentin and Twist1, while suppressing E-cadherin expression
[3]
  improvement in survival of PC patients: 4-6 months
[4]
  levels of nuclear active Stat5 versus hormone-naïve PCs: significantly (p<0.0001) elevated
[5]; FIG. 9
  Stat5 phosphorylation in PC cell lines: induced a robust Stat5 phosphorylation
[5]; FIGS. 10C-10D
  phosphorylation of Jak2 in PC cells: induced robust phosphorylation of Jak2

## O=P(O)(O)OC[C@H]1O[C@@H](n2cnc3c(NCc4ccccc4)ncnc32)[C@H](O)[C@@H]1O [IST5-002]
[6]
  AR mRNA and protein expression in PC tumors in vivo: marked decrease in AR mRNA and protein expression

## Cc1cnc(Nc2ccc(OCCN3CCCC3)cc2)nc1Nc1cccc(S(=O)(=O)NC(C)(C)C)c1 [fedratinib, N-tert-Butyl-3-{5-methyl-2-[4-(2-pyrrolidin-1-yl-ethoxy)-phenylamino]-pyrimidin-4-ylamino}-benzenesulfonamide]
[7]
  FL-AR and AR-V protein levels: depletes FL-AR and AR-V protein levels almost entirely
[8]
  FL and AR-V AR mRNA and protein levels: dose-dependent reduction
[9]
  IC50: 300 nM
[10]
  growth / viability of PC cells surviving ENZ treatment: able to block the growth PC cells surviving ENZ treatment with very high efficacy
[11]; after 4 days of treatment
  decrease in cell viability compared to control (+DMSO): 87%
[11]; after 6 days of treatment
  decrease in cell viability compared to control (+DMSO): 98%
[12]
  further reduction of AR mRNA/protein expression after Stat5-shRNA: no further decrease in AR expression levels
[13]
  AR expression at mRNA and protein level in PC cells that survive ENZ treatment: reduces expression of AR at both the mRNA and protein level
[14]
  mRNA expression of AR-FL, AR-V7 and AR-V9 versus concentration: AR expression levels decrease with increased concentrations

## C1=C/COCc2cc(ccc2OCCN2CCCC2)Nc2nccc(n2)-c2cccc(c2)COC/1 [pacritinib, (16E)-11-[2-(1-Pyrrolidinyl)ethoxy]-14,19-dioxa-5,7,26-triazatetracyclo[19.3.1.12,6.18,12]heptacosa-1(25),2(26),3,5,8,10,12(27),16,21,23-decaene]
[15]; CWR22PC and CWR22Rv1, FIG. 18
  efficacy in suppressing AR protein expression relative to research grade pacritinib: has higher efficacy than research grade pacritinib (MCE)
[15]; CWR22Pc, LAPC4
  phosphorylation of Stat5: decreases phosphorylation of Stat5
[15]; CWR22Rv1 and CWR22PC
  AR expression at the protein level: caused a reduction in AR expression at the protein level
  mRNA expression of AR-FL, AR-V7 and AR-V9: reduced mRNA expression levels of both full-length (AR-FL) and variant (AR-V7 and AR-V9) forms of AR
[15]; CWR22Rv1 and CWR22PC, FIG. 17
  efficacy in suppressing AR mRNA expression relative to research grade pacritinib: has higher efficacy than research grade pacritinib (MCE)
[8]
  FL and AR-V AR mRNA and protein levels: dose-dependent reduction
[16]
  time after treatment at which AR protein levels start to decrease: 48 h
[9]
  IC50: 300 nM
[10]
  growth / viability of PC cells surviving ENZ treatment: able to block the growth PC cells surviving ENZ treatment with very high efficacy
[11]; after 4 days of treatment
  decrease in cell viability compared to control (+DMSO): 82%
[11]; after 6 days of treatment
  decrease in cell viability compared to control (+DMSO): 96%
[12]
  further reduction of AR mRNA/protein expression after Stat5-shRNA: no further decrease in AR expression levels
[13]
  AR expression at mRNA and protein level in PC cells that survive ENZ treatment: reduces expression of AR at both the mRNA and protein level
[14]
  mRNA expression of AR-FL, AR-V7 and AR-V9 versus concentration: AR expression levels decrease with increased concentrations
